From ChEMBL document CHEMBL5537205, “Discovery of D25, a Potent and Selective MNK Inhibitor for Sepsis-Associated Acute Spleen Injury” (J Med Chem, 2024) come the findings set out here.

Data set [1] can be described thus: Half-life in Sprague-Dawley rat at 20 mg/kg, po measured after 48 hrs. The data set is classed as ADME, organism-based. The settings on record: in vivo.
Data set [2] addresses MAP kinase-interacting serine/threonine-protein kinase 1 (Homo sapiens, UniProt Q9BUB5). The data set can be described thus: Inhibition of MNK1 (unknown origin) at 1 uM relative to control.
For data set [3], the system named is Mus musculus. The data set can be described thus: Antiinflammatory activity in LPS-induced BALB/c sepsis mouse model assessed as decrease in serum ALT level at 10 to 20 mg/kg, po preadministered with compound for 14 days followed by LPS stimulation and measured after 6 hrs. The data set is classed as functional, organism-based. The settings on record: dose 10-20 mg/kg, time 342.0 hrs.

In data set [4] the test system is Mus musculus. Briefly: Antiinflammatory activity in LPS-induced BALB/c sepsis mouse model assessed as decrease in COX-2 level in spleen at 10 to 20 mg/kg, po preadministered with compound for 14 days followed by LPS stimulation and measured after 6 hrs by Western blot analysis. The data set is classed as functional, organism-based. The settings on record: dose 10-20 mg/kg, time 342.0 hrs.

For data set [5], the system named is Mus musculus. The data set can be described thus: Antiinflammatory activity in LPS-induced BALB/c sepsis mouse model assessed as decrease in volume of spleen nucleus at 10 to 20 mg/kg, po preadministered with compound for 14 days followed by LPS stimulation and measured after 6 hrs by H&E staining based analysis. The data set is classed as functional, organism-based. The following applies: dose 10-20 mg/kg, time 342.0 hrs.

Data set [6] has as its system Mus musculus. The data set can be described thus: Antiinflammatory activity in LPS-induced BALB/c sepsis mouse model assessed as reversal of LPS-induced liver […] index at 20 mg/kg, po preadministered with compound for 14 days followed by LPS stimulation and measured after 6 hrs. The data set is classed as functional, organism-based. The following applies: time 342.0 hrs.

Data set [7] can be described thus: Oral bioavailability in Sprague-Dawley rat at 20 mg/kg measured after 48 hrs. The data set is classed as ADME, organism-based. The following applies: in vivo.
The nature of data set [8]: Toxicity in BALB/c mouse assessed as change in body weight at 10 to 20 mg/kg, po administered for 14 days. The data set is classed as organism-based. The following applies: in vivo, 336 h, dose 10-20 mg/kg, time 14 day.
Data set [9] deals with MV4-11. The data set can be described thus: Antiproliferative activity against human MV4-11 cells assessed as inhibition of cell proliferation at 20 uM incubated for 48 hrs by CCK8 assay relative to control. The data set is classed as functional.
Data set [10] deals with RAW264.7. Briefly: Antiinflammatory activity against LPS-induced mouse RAW264.7 cells assessed as decrease in IL-6 expression at 10 to 20 uM by Western blot analysis. The data set is classed as functional, cell-based. The following applies: dose 10-20 µM. (In general: In western blotting, separated proteins are transferred to a membrane and probed.)
For data set [11], the system named is Mus musculus. Briefly: Antiinflammatory activity in LPS-induced BALB/c sepsis mouse model assessed as decrease in TNF-alpha level in spleen at 10 to 20 mg/kg, po preadministered with compound for 14 days followed by LPS stimulation and measured after 6 hrs by Western blot analysis. The data set is classed as functional, organism-based. The following applies: dose 10-20 mg/kg, time 342.0 hrs.

The test system of data set [12] is Mus musculus. Briefly: Antiinflammatory activity in LPS-induced BALB/c sepsis mouse model assessed as reversal of LPS-induced kidney renal index at 20 mg/kg, po preadministered with compound for 14 days followed by LPS stimulation and measured after 6 hrs. The data set is classed as functional, organism-based. The settings on record: time 342.0 hrs.
The subject of data set [13] is MV4-11. The data set can be described thus: Antiproliferative activity against human MV4-11 cells assessed as inhibition of cell proliferation incubated for 48 hrs by CCK8 assay. The following applies: MV4-11, 48 h. The data set is classed as functional, cell-based. On the technique in general: Formazan colour is commonly taken as a measure of viable cells.

Calls of active or inactive are those of the source. The rule behind the calls is not given here.

Sequence of MAP kinase-interacting serine/threonine-protein kinase 1 (Q9BUB5 whole entry, looked up): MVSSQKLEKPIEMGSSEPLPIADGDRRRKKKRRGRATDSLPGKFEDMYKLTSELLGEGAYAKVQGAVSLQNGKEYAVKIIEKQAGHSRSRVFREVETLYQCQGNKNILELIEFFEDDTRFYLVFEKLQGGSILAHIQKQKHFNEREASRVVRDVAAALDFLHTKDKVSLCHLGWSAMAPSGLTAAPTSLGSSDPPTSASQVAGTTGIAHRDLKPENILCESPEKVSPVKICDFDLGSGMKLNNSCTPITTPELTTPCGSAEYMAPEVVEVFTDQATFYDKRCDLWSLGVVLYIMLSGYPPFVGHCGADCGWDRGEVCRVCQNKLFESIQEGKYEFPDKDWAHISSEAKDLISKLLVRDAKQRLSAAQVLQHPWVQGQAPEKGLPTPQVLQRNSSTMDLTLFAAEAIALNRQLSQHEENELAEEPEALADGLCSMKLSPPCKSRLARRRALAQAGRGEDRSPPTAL

Consider `c1cc(-c2cc(C3CCNCC3)n[nH]2)c2cc[nH]c2n1`, for which the half-life – broadly, the time in which the quantity being followed falls by half – in data set [1] is 3.34 h. In addition, the inhibition (in general, the drop in the measured response relative to a control, in per cent) in data set [2] turned out to be 88.3%. The outcome in data set [3], in data set [4], in [5], in data set [6], in data set [10] and in data set [11] was Active. The outcome in data set [12] was Active. Also, the F in [7] stood at 1.16%. In addition, the Activity result in data set [8] is given as “Non-Toxic”. In data set [9], the inhibition at 20 µM came to 98.5%. Besides, the IC50 (in general, the concentration needed to halve the response being measured) in data set [13] is 550 nM.
